US20010000523A1, “Carboxylated polymers complexes” (priority 1999, published 2001)

Tested on: eye
Test: Primary eye irritation, protocol FHSLA 16 CFR 1500.42
Format: in vivo
Settings: products tested at 25% actives
Description: Eye irritation is a major concern in the formulation of personal care products, particularly when working with quats. Primary eye irritation was tested using the protocol outlined in FHSLA 16 CFR 1500.42. The products were tested at 25% actives.

Structure (SMILES)	Description	Score
CCCCCCCCCCCCCCCCCC[N+](C)(C)Cc1ccccc1.[Cl-] [Stearalkonium Chloride]	Severely Irritating	116.5
CCCCCCCCCCCCCCCCCC[N+](C)(C)C.[Cl-] [Stearyl trimethyl ammonium chloride]	Severely Irritating	106.0
